Data from patent US5594024A, “Centrally actig substituted phenylazacycloalkanes” (priority 1995, dated 1997).
Read-outs that look alike come from different tables or passages of the source.

Key:
[1] = target: T1, D2 receptors (Rattus norvegicus, UniProt P61169); experiment: D2 antagonist binding ([3H]-spiperone), rat striatum
T1 construct: Preparation of rat striatal membranes for (3H)-spiperone; from tissue; host or cells: rat striatum (striatal membranes)
Description: D2 antagonist binding. Preparation of rat striatal membranes for (3H)-spiperone (specific activity 21-24 Ci/mmol) binding was carried out in a similar manner as described for D1-binding, Hyttel et al., J. Neural. Transm., 68, 171 (1987).
IC50 values were calculated by semi-log plot and linear regression analysis.

[2] = target: T2, 5-HT1A (Rattus norvegicus, UniProt P19327); experiment: 5-HT1A radioligand binding ([3H]-8-OH-DPAT); parameters: species or system rat (male Sprague-Dawley); conditions: [3H]-8-OH-DPAT, rat cortex; read-out: in vitro binding IC50, 5HT1A
T2 construct: the whole brain with the exception of the brainstem and cerebellum was rapidly removed; from tissue
T2 sequence (P19327 1-422): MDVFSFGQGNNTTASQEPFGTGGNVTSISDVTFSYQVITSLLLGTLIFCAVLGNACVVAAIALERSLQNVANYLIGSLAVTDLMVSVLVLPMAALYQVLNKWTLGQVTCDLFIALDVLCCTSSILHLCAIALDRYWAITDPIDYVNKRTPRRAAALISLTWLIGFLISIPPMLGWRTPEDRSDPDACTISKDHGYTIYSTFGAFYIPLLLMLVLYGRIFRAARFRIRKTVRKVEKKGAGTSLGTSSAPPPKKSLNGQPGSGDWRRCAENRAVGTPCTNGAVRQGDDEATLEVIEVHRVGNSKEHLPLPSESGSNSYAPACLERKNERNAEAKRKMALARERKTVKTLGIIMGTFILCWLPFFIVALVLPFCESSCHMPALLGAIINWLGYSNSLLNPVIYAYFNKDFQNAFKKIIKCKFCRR
Description: ^b Serotonin 5HT1A ([^3 H]-8OH-DPAT, agonist) rat cortex.
5-HT1A radioligand binding. Male Sprague-Dawley rats (160-225 g) were killed by decapitation and the whole brain with the exception of the brainstem and cerebellum was rapidly removed, weighed and chilled in ice-cold 0.9% NaCl. Each brain was homogenized (Ultra-Turrax, 20 s) in 10 mL ice-cold 50 mM Tris buffer (pH 8.0 at 25° C.) containing 120 mM NaCl, 4 mM CaCl2 and 4 mM MgCl2 and centrifuged at 20,000 g's at 4° C. for 10 minutes. Pellets were resuspended in 10 mL fresh buffer and preincubated for 10 minutes in a 37° C. waterbath and then recentrifuged. Final pellets were homogenized in 100 volumes (w/v) of Tris buffer (as described above) containing 10 μM pargyline. The incubation tubes were kept on ice in triplicates and received 100 μL drug solution in water (or water for total binding) and 1000 μL membrane suspension (corresponds to 10 mg original tissue). The binding experiment was initiated by addition of 100 μL of (3H)-8-OH-DPAT (specific activity 143-158 Ci/mmol) in ascorbic acid (the final incubation concentration was 1 nM (3H)-8-OH-DPAT in 0.1% ascorbic acid). After incubation for 15 minutes at 37° C. the reaction was terminated by separation of the free radioligand from bound by rapid vacuum filtration using a cell harvester equipment (O. M. Teknik, Denmark). The tubes were rinsed with 4 mL and the filters (Whatman GF/F 25 mm) were washed twice with 4 mL ice-cold 0.9% NaCl.
The radioactivity of the filters was measured in a liquid scintillation counter (efficiency 41%) in 5 mL Picofluor®. Specific binding (70-75% of total binding) was defined as the radioactivity displaced by 10 μM 5-HT. IC50 values were calculated by semi-log plot and linear regression analysis.

[3] = system: DA receptor; experiment: DA metabolism (DOPAC, HVA levels) in habituated rats; assay type: in vivo, rat (male Sprague-Dawley); conditions: Rattus norvegicus, 1 h
Description: (§1) Footnotes Table 3. The rats were habituated to the motility meters 60 min
The rats were immediately killed after the activity session, striata
and limbic levels of DOPAC and 5HIAA were measured by means of HPLCEC. *p
In the experiments with habituated rats no NSD was administered and the animals were killed one hour after drug administration. […] The levels were expressed as % of controls (DOPAC and 5-HIAA see Table 3). The in vivo brain microdialysis experiments were performed in conscious rats as described by Waters et al., Eur. J. Pharm., 187, 425-34 (1990).
(§2) Injection volumes were 5 mL/kg.
After the activity session the rats were killed and the brain levels of HVA and DOPAC were measured (data are expressed as means ±SEM).

[4] = system: habituated rats; experiment: Locomotor activity and behavior in habituated rats; assay type: in vivo, rat (male Sprague-Dawley); conditions: 100 μmol/kg sc, habituated rats
Description: as §1
prior to the activity session.
as §2
Locomotor activity was measured in rats which were habituated 60 minutes to the activity meters before drug injection. The activity was measured for the subsequent 60 minutes and expressed as % of controls (means ±SEM, n=4).

[5] = system: 5-HT receptor; experiment: 5-HTP accumulation (5-HT synthesis rate) in non-pretreated rats after NSD 1015; assay type: in vivo, rat (male Sprague-Dawley); conditions: 100 sc
Description: observations are commented to the right. After the session the rats were
accumulation in the NErich cortical regions and 5HTP in the limbic
as §2

[6] = system: DA receptor; experiment: DOPA accumulation (DA synthesis rate) in non-pretreated rats after NSD 1015; conditions: 100 sc
[7] = system: non-pretreated rats; experiment: Locomotor activity and gross behavior in non-habituated (non-pretreated) rats; conditions: 100 sc, non-pretreated rats
[8] = [3H]-spiperone, rat striatum, read-out: in vitro binding IC50, D2 -spip

T1 sequence (P61169 whole entry): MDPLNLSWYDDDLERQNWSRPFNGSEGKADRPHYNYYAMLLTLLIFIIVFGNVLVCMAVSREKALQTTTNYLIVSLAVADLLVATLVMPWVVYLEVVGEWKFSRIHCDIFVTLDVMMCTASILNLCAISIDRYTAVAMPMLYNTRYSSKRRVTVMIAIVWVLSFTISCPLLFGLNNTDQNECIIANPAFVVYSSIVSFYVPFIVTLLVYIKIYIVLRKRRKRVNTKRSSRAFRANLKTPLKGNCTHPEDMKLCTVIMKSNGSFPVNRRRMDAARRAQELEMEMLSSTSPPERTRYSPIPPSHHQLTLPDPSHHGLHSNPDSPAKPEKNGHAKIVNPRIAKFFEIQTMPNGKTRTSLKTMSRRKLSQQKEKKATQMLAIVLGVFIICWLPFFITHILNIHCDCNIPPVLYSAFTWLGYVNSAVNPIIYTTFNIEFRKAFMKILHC

Work on `N#Cc1cccc([C@@H]2CCCN(CCc3cccs3)C2)c1` [Compound S-40, S-3-((3-Cyanophenyl)-N-(2-thiopheneethyl))piperidine] yielded an IC50 [1, 8] of 0.89 µM, an IC50 [2] of 0.4 µM and a response vs control in vivo at 100 µmol/kg ([3]; 100 μmol/kg sc, habituated rats, read-out: DOPAC limbic) of 149 ± 17%. For the same compound, the response vs control in vivo at 100 µmol/kg ([3]; 100 μmol/kg sc, habituated rats, read-out: DOPAC striatum) was 201 ± 4%, the Behavioral observations [4] was “Activation” and the response vs control in vivo at 100 µmol/kg ([4]; Rattus norvegicus, 1 h, 60 min, read-out: Motor Activity) was 500 ± 92%.
For `C=Cc1cccc([C@@H]2CCCN(CCC)C2)c1` [(-)-R-41], the “5-HTP acc Limbic Region” value [5] was 65 ± 2 % of saline controls, the “DOPA acc Cortex” value [6] was 121 ± 29 % of saline controls and the “DOPA acc Stratium” value [6] was 171 ± 15 % of saline controls. For the same compound, the “Gross Behavioral Observations” value [7] was “No change” and the “Motor Act.” value ([7]; 30 min) was 125 ± 13 % of saline controls.
With `N#Cc1cccc([C@@H]2CCCN(CC3CC3)C2)c1` [Compound S-38, S-3-(3-Cyanophenyl-N-cyclopropylmethyl)piperidine] the IC50 [2] was 7.9 µM and the response vs control in vivo at 100 µmol/kg ([3]; sc, read-out: DOPAC limbic) was 221 ± 8%.
`CCCCN1CCC[C@@H](c2cccc(C#N)c2)C1` [Compound S-36, S-3-(3-Cyanophenyl-N-n-butyl)piperidine] gave an IC50 ([1]; read-out: in vitro binding IC50, D2 -spip, [3H]-spiperone, rat striatum) of 3.7 µM and an IC50 [2] of 5.6 µM.
With `CCCN1CCC[C@@H](c2cccc(C(N)=O)c2)C1` [S-(-)-29, S-(-)-3-(3-Carbamoylphenyl-N-n-propyl)piperidine] the IC50 [1, 8] was 75 µM and the IC50 [2] was 6.3 µM.
`CCCN1CCC[C@@H](c2cccc(C(=O)OC)c2)C1` [Compound S-25, S-3-(3-(Methoxycarbonyl)phenyl-N-n-propyl)piperidine] gave an IC50 [1, 8] of 16 µM and an IC50 [2] of 2 µM.
In the case of `CCCN1CCCC(c2ccc(OS(=O)(=O)C(F)(F)F)cc2)C1` (racemic) [Racemic-20, 3-((4-(Trifluoromethyl)sulfonyl)oxyphenyl-N-n-propyl)piperidine], the IC50 [1, 8] is reported as 71 µM and the IC50 [2] is reported as 14 µM.
`CCCN1CCC[C@@H](c2cccc(OC)c2)C1` [S-i, S-3-(3-Methoxyphenyl-N-n-propyl)piperidine] showed an IC50 [1, 8] of 21 µM and an IC50 [2] of 4.5 µM.
With `O=S(=O)(Oc1cccc([C@@H]2CCCN(CCc3ccccc3)C2)c1)C(F)(F)F` [Compound S-18] the IC50 [1] was 0.24 µM and the IC50 [2] was 0.23 µM.
`CCCN1CCCC(c2cccc(C#N)c2)C1` (racemic) [(+)-S-34] was tested, and the response vs control in vivo at 100 µmol/kg ([3]; sc, read-out: DOPAC limbic) was 207 ± 6% and the response vs control in vivo at 100 µmol/kg ([3]; sc, read-out: DOPAC striatum) was 291 ± 16%.
